From patent publication US4103011A, “Novel penicillin compounds and process for preparation thereof” (priority 1976, dated 1978)
≈ marks a conversion by molar mass, not a printed value. Where a name gives a salt, the structure may show the parent alone. Read-outs that look alike come from different tables or passages of the source.

Tests used:
20 strains of bacteria = test: In vitro antibacterial activity, overall conclusions; type: cell-based
Text: (§1) In vitro antibacterial activity against 20 strains of bacteria

Proteus rettgeri P-2503 = test: In vitro antibacterial activity (MIC); type: cell-based; conditions: Providencia rettgeri
Text: as §1
(§2) The numerals in the table show minimum inhibitory concentrations (MIC)

[1] = tested on: Escherichia coli NIHJ JC-2; test: In vitro antibacterial activity (MIC); type: cell-based
Text: as §1, §2

Escherichia coli P-5101 [2] = test: In vitro antibacterial activity (MIC); type: cell-based
Text: as §1, §2

Proteus mirabilis P-2381 = test: In vitro antibacterial activity (MIC); type: cell-based
Text: as §1, §2

[3] = tested on: Streptococcus pyogenes 65A; test: In vitro antibacterial activity (MIC); type: cell-based; conditions: Streptococcus pyogenes 65A; read-out: minimum inhibitory concentration (MIC)
Text: as §1, §2

[4] = tested on: Salmonella typhimurium S-9; test: In vitro antibacterial activity (MIC); type: cell-based; conditions: Salmonella enterica; Salmonella typhimurium S-9; read-out: minimum inhibitory concentration (MIC)
Text: as §1, §2

Proteus morganii Kono = test: In vitro antibacterial activity (MIC); type: cell-based; conditions: Morganella morganii, read-out: minimum inhibitory concentration (MIC)
Text: as §1, §2

[5] = tested on: Pseudomonas aeruginosa Tsuchijima; test: In vitro antibacterial activity (MIC); type: cell-based; conditions: Pseudomonas aeruginosa Tsuchijima; read-out: minimum inhibitory concentration (MIC)
Text: as §1, §2

[6] = tested on: Streptococcus faecalis P-2473; test: In vitro antibacterial activity (MIC); type: cell-based; conditions: Enterococcus faecalis
Text: as §1, §2

[7] = tested on: Pseudomonas aeruginosa No.12; test: In vitro antibacterial activity (MIC); type: cell-based
Text: as §1, §2

[8] = tested on: Staphylococcus aureus 209P JC-1; test: In vitro antibacterial activity (MIC); type: cell-based; conditions: Staphylococcus aureus 209P JC-1; read-out: minimum inhibitory concentration (MIC)
Text: as §1, §2

[9] = tested on: Salmonella enteritidis No. 1891; test: In vitro antibacterial activity (MIC); type: cell-based; conditions: Salmonella enterica; Salmonella enteritidis No. 1891; read-out: minimum inhibitory concentration (MIC)
Text: as §1, §2

[10] = tested on: Klebsiella pneumoniae No. 13; test: In vitro antibacterial activity (MIC); type: cell-based
Text: as §1, §2

[11] = tested on: Serratia mercescens IFO 3736; test: In vitro antibacterial activity (MIC); type: cell-based
Text: as §1, §2

Shigella flexneri 2a = test: In vitro antibacterial activity (MIC); type: cell-based; conditions: read-out: minimum inhibitory concentration (MIC)
Text: as §1, §2

[12] = tested on: Corynebacterium pyogenes C-21; test: In vitro antibacterial activity (MIC); type: cell-based; conditions: Rhodococcus (subgen. Prescottella) equi, C21; Corynebacterium pyogenes C-21; read-out: minimum inhibitory concentration (MIC)
Text: as §1, §2

[13] = tested on: Shigella flexneri 4a P-330; test: In vitro antibacterial activity (MIC); type: cell-based; conditions: 4AP330, read-out: minimum inhibitory concentration (MIC)
Text: as §1, §2

[14] = tested on: Staphylococcus aureus No. 50774; test: In vitro antibacterial activity (MIC); type: cell-based; conditions: Staphylococcus aureus No. 50774; read-out: minimum inhibitory concentration (MIC)
Text: as §1, §2

Escherichia coli P-140a = test: In vitro antibacterial activity (MIC); type: cell-based
Text: as §1, §2

[15] = tested on: Enterobacter cloacae P-2540; test: In vitro antibacterial activity (MIC); type: cell-based; conditions: P2540; Enterobacter cloacae P-2540; read-out: minimum inhibitory concentration (MIC)
Text: as §1, §2

in vivo = conditions: mouse, sc
Escherichia coli P-5101 [16] = test: In vivo efficacy against systemic infection; parameters: species or system male mice (ddY); conditions: P5101, in Mus musculus, 168 h, twice, about 5 minutes and 6 hours after infection, read-out: ED50 (median effective dose)
Experimental: (§3) The contents in the vials (No. A and No. C) prepared in Example 17 were each dissolved in deionized water, and injections having various concentrations were prepared.
(§4) Compounds A, B, F, G, H and M were dissolved in deionized water.
(§5) Mice: male mice (ddY) weighting about 20g
(§6) Intraperitoneal infection with 50 to
(§7) of a bacterial suspension in tryptosoy
(§8) twice, about 5 minutes and 6 hours after
(§9) calculated in accordance with the Behrens-Kaerber method [Arch. Exp. Path

[17] = tested on: Pseudomonas aeruginosa No. 12; test: In vivo efficacy against systemic infection; parameters: species or system male mice (ddY); conditions: NO.12, in Mus musculus, sc, twice, about 5 minutes and 6 hours after infection, read-out: ED50 (median effective dose)
Experimental: as §3, §4, §5
Pseudomonas aeruginosa No. 12;
as §6, §7, §8
Pseudomonas aeruginosa No. 12
as §9

[18] = tested on: Staphylococcus aureus No. 50774; test: In vivo efficacy against systemic infection; parameters: species or system male mice (ddY); conditions: NO.50774, in Mus musculus, 336 h, sc, twice, about 5 minutes and 6 hours after infection, read-out: ED50 (median effective dose)
Experimental: as §3
Compounds A, B, F, G, H and M were dissolved in deionized water. Compounds C, D, E and J were dissolved in an aqueous solution of sodium carbonate (pH 8-9) to prepare injections of various concentrations.
Each of the injections was administered to mice under the conditions described below, and the median effective doses (ED50) obtained are shown in Table II.
as §5
Staphylococcus aureus No. 50774;
Intravenous infection with 50 to 100
LD50 (about 5 × 10^8cells/mouse) of a
bacterial suspension in saline.
as §8
Staphylococcus aureus No. 50774 14 days
The numerals in the table show ED50 (mg/kg). ED50 values were
as §9

[19] = P2503, Proteus rettgeri P-2503, read-out: minimum inhibitory concentration (MIC)
[20] = P5101, Escherichia coli P-5101, read-out: minimum inhibitory concentration (MIC)
[21] = P2381, Proteus mirabilis P-2381, read-out: minimum inhibitory concentration (MIC)
[22] = P2473, Streptococcus faecalis P-2473, read-out: minimum inhibitory concentration (MIC)
[23] = Pseudomonas aeruginosa No.12, read-out: minimum inhibitory concentration (MIC)
[24] = Klebsiella pneumoniae No. 13, read-out: minimum inhibitory concentration (MIC)
[25] = Escherichia coli, NIHJJC2, read-out: minimum inhibitory concentration (MIC)
[26] = Serratia, IFO3736, read-out: minimum inhibitory concentration (MIC)

Which results are given for `CC(=O)N1CCN(c2ncc3c(=O)c(C(=O)O)c[nH]c3n2)CC1` [Compound L, 5,8-Dihydro-2-(4-acetyl-1-piperazinyl)-5-oxopyrido[2,3-d]pyrimidine-6-carboxylic acid]?
antibacterial activity (in words) (20 strains of bacteria; in vitro, Table I): do not substantially show antibacterial activity; MIC (Proteus rettgeri P-2503; [19]): > 100 µg/mL; MIC ([1]; NIHJJC2, Escherichia coli NIHJ JC-2, read-out: minimum inhibitory concentration (MIC)): > 100 µg/mL; MIC (Escherichia coli P-5101 [2]; [20]): > 100 µg/mL; MIC (Proteus mirabilis P-2381; [21]): > 50 µg/mL; MIC [3]: > 100 µg/mL; MIC [4]: > 50 µg/mL; MIC (Proteus morganii Kono; Proteus morganii Kono): > 200 µg/mL; MIC [5]: > 200 µg/mL; MIC [6, 22]: > 50 µg/mL; MIC [7, 23]: > 200 µg/mL; MIC [8]: > 50 µg/mL; MIC [9]: > 50 µg/mL; MIC [10, 24]: > 200 µg/mL; MIC ([11]; IFO3736, Serratia mercescens IFO 3736, read-out: minimum inhibitory concentration (MIC)): > 100 µg/mL; MIC (Shigella flexneri 2a): > 100 µg/mL; MIC [12]: > 50 µg/mL; MIC [13]: > 100 µg/mL; MIC [14]: > 50 µg/mL; minimum inhibitory concentration (MIC) (Escherichia coli P-140a): > 200 µg/mL; MIC [15]: > 200 µg/mL

For `CN(C)c1ncc2c(=O)c(C(=O)N[C@@H](C(=O)N[C@@H]3C(=O)N4[C@@H]3SC(C)(C)[C@@H]4C(=O)O)c3ccc(O)cc3)c[nH]c2n1` [Compound E, D-α-(5,8-Dihydro-2-dimethylamino-5-oxopyrido[2,3-d]pyrimidine-6-carboxamido)-p-hydroxybenzylpenicillin], which LD50 at 168 h (in vivo) is on record?
Its LD50 at 168 h is 1070 mg/kg.

What about the selectivity ratio (in vivo) of the same compound?
The selectivity ratio was 33.

What about the ED50 (Escherichia coli P-5101 [16]; sc) of the same compound?
Its ED50 is 11 mg/kg.

And the ED50 [17]?
Its ED50 is 32.4 mg/kg.

And the ED50 [18]?
Its ED50 is roughly 10 mg/kg.

What about the MIC (Proteus rettgeri P-2503; P2503, read-out: minimum inhibitory concentration (MIC)) of the same compound?
Its MIC is 6.25 µg/mL (≈ 10.7 µM).

What about the MIC [1, 25] of the same compound?
Its MIC is 6.25 µg/mL (≈ 10.7 µM).

And the MIC (Escherichia coli P-5101 [2]; [20])?
The MIC was 1.56 µg/mL (≈ 2.68 µM).

And the MIC (Proteus mirabilis P-2381; Proteus mirabilis, P2381, read-out: minimum inhibitory concentration (MIC))?
Its MIC is 3.13 µg/mL (≈ 5.38 µM).

And the MIC [3]?
Its MIC is 0.025 µg/mL (≈ 0.043 µM).

And the MIC [4]?
Its MIC is 1.56 µg/mL (≈ 2.68 µM).

And the MIC (Proteus morganii Kono)?
Its MIC is 6.25 µg/mL (≈ 10.7 µM).

What about the MIC [5] of the same compound?
The MIC was 1.56 µg/mL (≈ 2.68 µM).

And the MIC ([6]; P2473, read-out: minimum inhibitory concentration (MIC))?
Its MIC is 3.13 µg/mL (≈ 5.38 µM).

And the MIC ([7]; Pseudomonas aeruginosa, NO.12, read-out: minimum inhibitory concentration (MIC))?
The MIC was 3.13 µg/mL (≈ 5.38 µM).

And the MIC [8]?
The MIC was 0.78 µg/mL (≈ 1.34 µM).

And the MIC [9]?
Its MIC is 0.78 µg/mL (≈ 1.34 µM).

And the MIC ([10]; Klebsiella pneumoniae, NO.13, read-out: minimum inhibitory concentration (MIC))?
The MIC was 12.5 µg/mL (≈ 21.5 µM).

What about the MIC [11, 26] of the same compound?
The MIC was 6.25 µg/mL (≈ 10.7 µM).

And the MIC [12]?
The MIC was 0.78 µg/mL (≈ 1.34 µM).

And the MIC [13]?
Its MIC is 6.25 µg/mL (≈ 10.7 µM).

And the MIC [14]?
The MIC was 0.78 µg/mL (≈ 1.34 µM).

What about the “minimum inhibitory concentration (MIC)” value (Escherichia coli P-140a) of the same compound?
Its value is 25 µg/mL (≈ 43 µM).

And the MIC [15]?
Its MIC is 12.5 µg/mL (≈ 21.5 µM).

Which “antibacterial activity (in words)” value (20 strains of bacteria; Ampicillin-resistant strains) does the source give for `CC1(C)S[C@@H]2[C@H](NC(=O)[C@H](N)c3ccc(O)cc3)C(=O)N2[C@H]1C(=O)O` [Compound M, D-α-Amino-p-hydroxybenzylpenicillin sodium salt] here?
Its value is “does not exhibit antibacterial activity”.

What about the “antibacterial activity (in words)” value (20 strains of bacteria; E. coli P-140a, Klebsiella pneumonia, Enterobacter cloacae, Pseudomonas aeruginosa, Serratia marcescens) of the same compound?
The value was “substantially ineffective”.

What about the “antibacterial activity (in words)” value (20 strains of bacteria; bacteria of the genus Pseudomonas) of the same compound?
Its value is “substantially ineffective”.

And the ED50 (Escherichia coli P-5101 [16]; iv)?
Its ED50 is 3.2 mg/kg.

What about the ED50 (Escherichia coli P-5101 [16]; sc) of the same compound?
The ED50 was 3.4 mg/kg.

And the ED50 [17]?
Its ED50 is greater than 200 mg/kg.

What about the ED50 [18] of the same compound?
Its ED50 is 0.34 mg/kg.

And the MIC (Proteus rettgeri P-2503; [19])?
The MIC was 50 µg/mL.

And the MIC [1, 25]?
Its MIC is 6.25 µg/mL.

And the MIC (Escherichia coli P-5101 [2]; Escherichia coli, P5101, read-out: minimum inhibitory concentration (MIC))?
The MIC was 6.25 µg/mL.

And the MIC (Proteus mirabilis P-2381; [21])?
The MIC was 1.56 µg/mL.

What about the MIC [3] of the same compound?
The MIC was 0.025 µg/mL.

What about the MIC [4] of the same compound?
Its MIC is 0.78 µg/mL.

And the MIC (Proteus morganii Kono; Proteus morganii Kono)?
Its MIC is 200 µg/mL.

And the MIC [5]?
Its MIC is 200 µg/mL.

And the MIC [6, 22]?
The MIC was 0.78 µg/mL.

What about the MIC [7, 23] of the same compound?
The MIC was greater than 200 µg/mL.

And the MIC [8]?
Its MIC is 0.1 µg/mL.

And the MIC [9]?
The MIC was 0.39 µg/mL.

What about the MIC [10, 24] of the same compound?
Its MIC is 200 µg/mL.

What about the MIC [11, 26] of the same compound?
Its MIC is 50 µg/mL.

And the MIC (Shigella flexneri 2a)?
The MIC was 6.25 µg/mL.

What about the MIC [12] of the same compound?
The MIC was 0.39 µg/mL.

And the MIC [13]?
Its MIC is 25 µg/mL.

What about the MIC [14] of the same compound?
Its MIC is 0.1 µg/mL.

And the “minimum inhibitory concentration (MIC)” value (Escherichia coli P-140a)?
Its value is greater than 200 µg/mL.

And the MIC [15]?
The MIC was greater than 200 µg/mL.
